Columns and labels:
[1] = molecular target: T1, M1 mAChR (Homo sapiens, UniProt P11229); test: Intracellular Ca2+ mobilization (Fluo-4 NW) in cells stably transfected with M1 mAChR; assay type: cell-based; set-up: expressed in transfected cells; conditions: for Kd: read-out: Effects on M1 mAChR: antagonist, Kd; for M1 agonist at 100 μM vs. carbachol (full muscarinic agonist, 100%): mobilization of intracellular Ca ions; for activity at 100 µM: remaining carbachol-induced effect, read-out: Antagonist at 100 μM on M1 mAChR inhibiting carbachol-induced effects from 100% to
T1 sequence (P11229 1-460): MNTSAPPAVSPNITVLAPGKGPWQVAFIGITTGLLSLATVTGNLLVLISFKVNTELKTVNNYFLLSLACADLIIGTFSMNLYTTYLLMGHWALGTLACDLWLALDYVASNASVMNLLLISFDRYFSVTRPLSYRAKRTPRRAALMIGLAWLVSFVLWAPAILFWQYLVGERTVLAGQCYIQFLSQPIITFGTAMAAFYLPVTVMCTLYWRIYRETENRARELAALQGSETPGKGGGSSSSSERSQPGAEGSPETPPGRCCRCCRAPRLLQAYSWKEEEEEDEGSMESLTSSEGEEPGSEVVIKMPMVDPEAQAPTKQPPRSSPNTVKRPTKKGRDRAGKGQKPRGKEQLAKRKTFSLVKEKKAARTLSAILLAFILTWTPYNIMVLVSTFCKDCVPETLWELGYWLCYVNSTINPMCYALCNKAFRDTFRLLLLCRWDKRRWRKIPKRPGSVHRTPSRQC
Text: On the day of experiment, cells were fully confluent.
To evaluate selectivity for a subtype of mAChR, in particular the M1 mAChR vs. M3 and MS mAChR, the assays were calibrated using ligands that have a combined activity, e.g. M1 agonistic and M3 antagonistic or M1 agonistic and MS antagonistic profiles, respectively. This can eliminate effects due to different receptor reserves in cell-based assays.

[2] = system: PC12M1 cells; test: Mitochondrial apoptosis pathway, Bax and Bcl-2 immunoreactivity in PC12M1 cells
Experimental: These cells were partially differentiated (2-3 days), as observed under microscope. […] The pellet (rich mitochondrial fraction) was re-suspended with 200 μl Ripa buffer and lysed by rapid passage through a syringe needle (23G) for five to six times. The lysate was then used for further evaluation.
Bands were probed using the Rabbit Bax antibody (1:1000, Cell signaling, Cat. No. 2772) and Rabbit Bcl-2 antibody (1:1000, Cell signaling, Cat. No. 2870) followed by anti rabbit IgG (H&L) HRP (1:5,000, Jackson Immuno Research, 111-035-144).

[3] = system: Wistar rats; test: Passive avoidance, trihexyphenidyl-induced memory impairment in rats; assay type: in vivo, rat; conditions: NE-100 1 mg/kg alone
Text: (§1) Trihexyphenidyl is a selective M1 muscarinic antagonist that crosses the blood brain barrier and induces memory and learning impairments (Bymaster et al., J Pharmacol Exp. Ther. 267: 16-24, 1993; Roldan et al., Neurosci. Lett. 230: 93-96, 1997; Kimura et al., Brain Res. 834: 6-12, 1999). […] Naive Wistar rats were used in the experiments below. The passive avoidance (PA) task consists of a training (acquisition) phase and a retention phase. In the training procedure each rat was individually placed in the small illuminated compartment and after 60 s. of familiarization/adaptation, the door to the large compartment was opened and the latency to enter was measured (Initial Latency) Immediately following entry into the dark compartment, the door was closed and inescapable foot shock (0.6 mA for 3 s) was delivered through the grid floor. […] After the acquisition trial the rat was returned to its home cage. Retention of the passive avoidance task was measured 24 h later, by again placing the rat in the light compartment and after a 60 s adaptation interval, the door was opened and the latency to re-enter the dark compartment was measured. […] Two separate experiments were conducted. […] In both experiments the rats were divided into 2 groups. One main group was treated with trihexyphenidyl (5 mg/kg, s.c) and the second main group was treated with vehicle (DDW-1 ml/kg, s.c.), 30 min before the shock.
In a further extension of these studies, retention of the passive avoidance task was measured 72 h later, by again placing the rat in the light compartment and after a 60 s adaptation interval, the door was opened and the latency to re-enter the dark compartment was measured. A cutoff point of 600 s was used for retention latency. […] Rats were divided into 2 groups. One group (N=30) was treated with trihexyphenidyl (5 mg/kg, s.c) and the second group (N=29) was treated with vehicle (DDW-1 ml/kg, s.c.), 30 min before the shock.

[4] = molecular target: T1, M1 mAChR; test: αAPPs secretion in CHO cells double transfected with human APP695 and human M1 mAChR; assay type: cell-based; conditions: doubly-transfected CHO cells; AF710B at 0.01 μM, AF710 at 0.1 μM, AF710A at 1 μM
Experimental: α-APPs Secretion studies following incubation with the tested compounds were performed as described in Haring, et al. J. Neurochem., 1998, 71:2094-103. […] A day later, cells were washed twice with serum free media, and treated with the test compound at various concentrations ranging from 0.1 nM to 100 μM. […] After 1 hour the conditioned medium was collected to cold Eppendorf tubes, which included a protease inhibitor cocktail (0.1 mM phenylmethylsulphonyl fluoride (PMSF); 5 μg/ml leupeptin; 5 μg/ml pepstatin and 5 units/ml aprotinin) for determining αAPPs release. The protein content of each sample was concentrated using Centricon tubes (Amicon, Beverly, Mass.). […] CHO cells double transfected with human APP695 and M1 mAChR APPs bands were probed using anti-amyloid beta protein (1:1000, monoclonal 6E10 antibody, MAB1560, Chemicon) and peroxidase-linked rabbit anti mouse IgG (1:5,000; Jackson Immuno Research, PA). PC12 cells stably transfected with M1 mAChR APPs bands were probed using the anti-Alzheimer precursor protein A4 (1:4,000; monoclonal 22C11 antibody, Boehringer Mannheim) and the peroxidase-linked rabbit anti mouse IgG (1:20,000; Jackson Immuno Research, PA). Following extensive washout, the membranes were treated with Western Lightning Chemiluminescence Reagent Plus (PerkinElmer Life Sciences, MA) followed by exposure to SuperRX film (Fuji Medical X-ray film, Tokyo, Japan). Quantitative determination of the total APPs bands was performed by Scion Image program (NIH, Bethesda, USA). Samples of control and CCh were assayed in parallel and thus enabled compilation of data from separate experiments.

[5] = system: rats; test: Passive avoidance, MK-801-induced impairment in rats; assay type: in vivo, rat; conditions: sc, retention 24 h later
Text: as §1
MK-801 is an NMDA antagonist that induces cognitive behavioral impairments in rodents. […] In the first experiment (dose-finding study of MK-801) rats were divided into 4 groups. Three groups (N=27) were treated with MK-801 (50, 80 or 100 μg/kg, s.c) and the fourth group (N=10) was treated with vehicle (saline-1 ml/kg, s.c.), 30 min before the shock. […] One group (N=80) was treated with MK-801 (80 μg/kg, s.c) and the second group (N=59) was treated with the vehicle (saline-1 ml/kg, s.c.).

CC1OC2(CCN(C)CC2)CN1C(=O)CCc1c[nH]c2ccccc12 (single isomer, unassigned) [AF711B]
Kd [1]: 42 µM

CC1OC2(CCN(C)CC2)CN1S(=O)(=O)c1ccc(F)cc1 (centres unmarked) [AF715, 3-(4-fluorobenzenesulfonyl)-2,8-dimethyl-1-oxa-3,8-diazaspiro[4.5]-decane]
Kd [1]: 2.5 µM

CC1OC2(CCN(C)CC2)CN1C(=O)CCc1c[nH]c2ccccc12 (single isomer, unassigned) [AF711A]
M1 agonist at 100 μM vs. carbachol (full muscarinic agonist, 100%) [1]: 45%

CC1SC2(CCN(C)CC2)CN1C(=O)c1cc(C(C)(C)C)c(O)c(C(C)(C)C)c1 (centres unmarked) [AF723, (3,5-di-tert-butyl-4-hydroxy-phenyl)-(2,8-dimethyl-1-thia-3,8-diaza-spiro[4.5]dec-3-yl)-methanone]
activity at 100 µM [1]: < 50%

CCCN(CCC)CCc1ccc(OC)c(OCCc2ccccc2)c1 [NE-100, reference compound]
effect of sigma-1 antagonist on AF710B-mediated decrease of Bax elevation ([2]; NGF deprivation): blocked these AF710B-mediated effects | inducing deficits in the PA task, alone [3]: not significantly effective

CC1SC2(CCN(C)CC2)CN1C(=O)Cc1c[nH]c2ccccc12 (centres unmarked) [AF726]
Kd [1]: 84.7 µM

CC1OC2(CCN(C)CC2)C2C1N2S(=O)(=O)c1ccc(F)cc1 (centres unmarked) [AF721, 1′,4-dimethyl-6-[3-(4-fluorobenzenesulfonyl)]-spiro-(3-oxa-6-aza-bicyclo[3.1.0]hexane-2,4′-piperidine)]
M1 agonist at 100 μM vs. carbachol (full muscarinic agonist, 100%) [1]: 13%

CC1CN(C(=O)CCc2c[nH]c3ccccc23)C2(CCN(C)CC2)O1 (centres unmarked) [AF706, 1-(2,8-dimethyl-1-oxa-4,8-diazaspiro[4.5]dec-4-yl)-3-(1H-indol-3-yl)-propan-1-one]
Kd [1]: 39.7 µM

CCCC(CCC)C(=O)N1CC2(CCN(C)CC2)OC1C (centres unmarked) [AF712, 1-(2,8-dimethyl-1-oxa-3,8-diaza-spiro[4.5]dec-3-yl)-2-propyl-pentan-1-one]
Kd [1]: 22.6 µM

CC1SC2(CCN(C)CC2)CN1C(=O)CCCc1c[nH]c2ccccc12 (centres unmarked) [AF725]
activity at 100 µM [1]: < 50%

CC1SC2(CCN(C)CC2)CN1C(=O)/C=C/c1c[nH]c2ccccc12 (centres unmarked) [AF727, (E)-1-(2,8-dimethyl-1-thia-3,8-diaza-spiro[4.5]dec-3-yl)-3-(1H-indol-3-yl)-propenone]
Kd [1]: 8.7 µM

CC1SC2(CCN(C)CC2)CN1S(=O)(=O)c1ccc(F)cc1 (centres unmarked) [AF716, 3-(4-fluorobenzenesulfonyl)-2,8-dimethyl-1-thia-3,8-diazaspiro[4.5]-decane]
Kd [1]: 7.7 µM

C[C@H]1SC2(CCN(C)CC2)CN1C(=O)CCc1c[nH]c2ccccc12 (single isomer, unassigned) [AF710A]
Kd [1]: 31 µM | maximal αAPPs secretion in comparison to untreated control cells [4]: 125%

C[C@]12N[C@H](Cc3ccccc31)c1ccccc12 [MK-801, reference compound]
retention performance, dose-finding ([5]; 50 μg/kg): ineffective | retention performance, dose-finding ([5]; 80 and 100 μg/kg): impaired retention performance

CC1OC2(CCN(C)CC2)CC1NC(=O)CCc1c[nH]c2ccccc12 (single isomer, unassigned) [AF730, N-(2,8-dimethyl-1-oxa-8-aza-spiro[4.5]dec-3-yl)-3-(1H-indol-3-yl)-propionamide]
M1 agonist at 100 μM vs. carbachol (full muscarinic agonist, 100%) [1]: 40%

C[N+](C)(C)CCOC(N)=O [carbachol, reference compound]
Aβ 25-35 induced neurotoxicity expressed as Bax/Bcl2 ([2]; PC12M1 cells, 1 μM): 29%±11

CC1OC2(CCN(C)CC2)C2C1N2C(=O)CCc1c[nH]c2ccccc12 (centres unmarked) [AF718C, 1′,4-dimethyl-6-(3-indolpropionyl)-spiro-(3-oxa-6-aza-bicyclo[3.1.0]-hexane-2,4′-piperidine)]
M1 agonist at 100 μM vs. carbachol (full muscarinic agonist, 100%) [1]: 43%

CCCC(CCC)C(=O)N1CC(C)OC12CCN(C)CC2 (centres unmarked) [AF713, 1-(2,8-dimethyl-1-oxa-4,8-diaza-spiro[4.5]dec-4-yl)-2-propyl-pentan-1-one]
Kd [1]: 113 µM

CCC(=O)N1CC2(CCN(C)CC2)SC1C (centres unmarked) [AF724, 1-(2,8-dimethyl-1-thia-3,8-diaza-spiro[4.5]dec-3-yl)-propan-1-one]
activity at 100 µM [1]: < 50%

CC1CN(S(=O)(=O)c2ccc(F)cc2)C2(CCN(C)CC2)O1 (centres unmarked) [AF714, 4-(4-fluoro-benzenesulfonyl)-2,8-dimethyl-1-oxa-4,8-diaza-spiro[4.5]-decane]
Kd [1]: 9.7 µM

CC1OC2(CCN(C)CC2)CC1NC(=O)CCc1c[nH]c2ccccc12 (single isomer, unassigned) [AF730 II]
M1 agonist at 100 μM vs. carbachol (full muscarinic agonist, 100%) [1]: 36%

CC1OC2(CCN(C)CC2)C/C1=N\OC(=O)CCc1c[nH]c2ccccc12 (centres unmarked) [AF733, (3E)-2,8-dimethyl-1-oxa-8-azaspiro[4.5]decan-3-one-O—[3-(1H-indol-3-yl)propanoyl]oxime]
M1 agonist at 100 μM vs. carbachol (full muscarinic agonist, 100%) [1]: 90%

CCCC(CCC)C(=O)N1CC2(CCN(C)CC2)SC1C (centres unmarked) [AF717, 1-(2,8-dimethyl-1-thia-3,8-diazaspiro[4.5]dec-3-yl)-2-propylpentan-1-one]
activity at 100 µM [1]: < 25%
